In ChEMBL document CHEMBL1122276, “6-Chloro-2,3,4,5-tetrahydro-3-methyl-1H-3-benzazepine: a potent and selective antagonist of alpha 2-adrenoceptors” (J Med Chem, 1983):
pEC50: −log10 of the molar value.

What was measured:
Oryctolagus cuniculus = species on record: Oryctolagus cuniculus; assay: Ability to block the norepinephrine constrictor response in the rabbit ear artery in a competitive fashion; format: functional
Cavia porcellus [1] = species on record: Cavia porcellus; assay: Dissociation constant (KB) for competitive inhibition of BHR 920 induced depression of neurotransmission in isolated guinea pig atrium; format: functional; conditions: Cardiac atrium
Canis familiaris = species on record: Canis familiaris; assay: Effective concentration of 100% release of [3H]norepinephrine from electrically stimulated dog splenic arteries; format: functional, Canis lupus familiaris
Cavia porcellus [2] = species on record: Cavia porcellus; assay: Concentration-related inhibition of response to sympathetic nerve stimulation in isolated guinea pig atrium mediated by alpha-2 receptors; format: functional; conditions: Cardiac atrium

pEC50 (Cavia porcellus [2])	SMILES	Kb (Oryctolagus cuniculus) [µM]	Kb (Cavia porcellus [1]) [µM]	EC100 (Canis familiaris) [nM]
	CN1CCc2cccc(Cl)c2CC1.Cl	0.9	0.017	210
7.00	C=CCN1CCc2nc(N)sc2CC1 [TALIPEXOLE]			
